Common to all, as to assay type: in vivo
The test system of test [1] is Amaranthus retroflexus. The test can be described thus: Post-emergence herbicidal efficacy at 80 g/ha, AMARE. The conditions noted are these: rated visually after about 3 weeks vs untreated controls, 100% = plants have died. The text has this: (§1) Unwanted plants/weeds: • ABUTH: Abutilon theophrasti • ALOMY: Alopecurus myosuroides • AMARE: Amaranthus retroflexus • DIGSA: Digitaria sanguinalis • ECHCG: Echinochloa crus-galli • KCHSC: Kochia scoparia • LOLRI: Lolium rigidum • MATIN: Matricaria inodora • POAAN: Poa annua • POLCO: Polygonum convolvulus • SETVI: Setaria viridis • STEME: Stellaria media • VERPE: Veronica persica • VIOTR: Viola tricolor A. Post-Emergence Herbicidal Efficacy at 320 g/ha
(§2) Seeds of monocotyledonous and dicotyledonous weeds and crop plants were placed in sandy loam in plastic or organic planting pots, covered with soil and cultivated in a greenhouse under controlled growth conditions. 2 to 3 weeks after sowing, the test plants were treated at the one-leaf stage. The compounds of the invention, formulated in the form of wettable powders (WP) or as emulsion concentrates (EC), were then sprayed onto the green parts of the plants as aqueous suspension or emulsion with addition of 0.5% additive at a water application rate of 600 l/ha (converted). After the test plants had been kept in the greenhouse under optimum growth conditions for about 3 weeks, the activity of the preparations was rated visually in comparison to untreated controls. For example, 100% activity=the plants have died, 0% activity=like control plants.
(§3) Tables B1 to B11 below show the effects of selected compounds of the general formula (I) according to Table 1 on various harmful plants and an application rate corresponding to 80 g/ha, which were obtained by the experimental procedure mentioned above.

The test system of test [2] is Amaranthus retroflexus. Description: Post-emergence herbicidal efficacy at 320 g/ha, AMARE. Conditions: rated visually after about 3 weeks vs untreated controls, 100% = plants have died.
Excerpt: as §1
(§4) Seeds of mono- and dicotyledonous weed plants were placed in plastic pots in sandy loam soil (doubly sown with in each case one species of mono- or dicotyledonous weed plants per pot), covered with soil and cultivated in a greenhouse under controlled growth conditions. 2 to 3 weeks after sowing, the test plants were treated at the one-leaf stage. The compounds of the invention, formulated in the form of wettable powders (WP) or as emulsion concentrates (EC), were applied to the green parts of the plants as aqueous suspension or emulsion with addition of 0.5% additive at a water application rate equivalent to 600 litres per hectare. After the test plants had been kept in the greenhouse under optimum growth conditions for about 3 weeks, the activity of the preparations was rated visually in comparison to untreated controls.
(§5) For example, 100% activity=the plants have died, 0% activity=like control plants.
(§6) Tables A1 to A10 below show the effects of selected compounds of the general formula (I) according to Table 1 on various harmful plants and at an application rate corresponding to 320 g/ha, which were obtained by the trial procedure specified above.

The subject of test [3] is Kochia scoparia. Description: Post-emergence herbicidal efficacy at 320 g/ha, KCHSC. Conditions: rated visually after about 3 weeks vs untreated controls, 100% = plants have died.
Excerpt: as §1, §4, §5, §6

The test system of test [4] is Poa annua. Description: Post-emergence herbicidal efficacy at 320 g/ha, POAAN. Conditions: rated visually after about 3 weeks vs untreated controls, 100% = plants have died.
Excerpt: as §1, §4, §5, §6

In test [5] the test system is Veronica persica. Description: Post-emergence herbicidal efficacy at 320 g/ha, VERPE. The conditions noted are these: rated visually after about 3 weeks vs untreated controls, 100% = plants have died.
Excerpt: as §1, §4, §5, §6

Test [6] deals with Veronica persica. The test can be described thus: Post-emergence herbicidal efficacy at 80 g/ha, VERPE. Conditions: rated visually after about 3 weeks vs untreated controls, 100% = plants have died.
Excerpt: as §1, §2, §3

Test [7] relates to Abutilon theophrasti. Description: Post-emergence herbicidal efficacy at 320 g/ha, ABUTH. The conditions noted are these: rated visually after about 3 weeks vs untreated controls, 100% = plants have died.
Excerpt: as §1, §4, §5, §6

Test [8] has as its system Digitaria sanguinalis. The test can be described thus: Pre-emergence herbicide efficacy at 320 g/ha, DIGSA. The conditions noted are these: scored visually after about 3 weeks vs untreated controls, 100% = plants have died.
Excerpt: as §1
(§7) Seeds of mono- and dicotyledonous weed plants were placed in plastic pots in sandy loam soil (doubly sown with one species each of mono- or dicotyledonous weed plants per pot) and covered with soil. The compounds of the invention, formulated in the form of wettable powders (WP) or as emulsion concentrates (EC), were then applied to the surface of the covering soil as aqueous suspension or emulsion with addition of 0.5% additive at a water application rate of 600 litres per hectare (converted). After the treatment, the pots were placed in a greenhouse and kept under good growth conditions for the test plants. After about 3 weeks, the efficacy of the preparations was scored visually in comparison with untreated controls as percentages.
as §5
(§8) Tables C1 to C12 below show the effects of selected compounds of the general formula (I) according to Table 1 on various harmful plants and at an application rate corresponding to 320 g/ha, which were obtained by the trial procedure specified above.

In test [9] the test system is Stellaria media. The test can be described thus: Pre-emergence herbicide efficacy at 320 g/ha, STEME. Conditions: scored visually after about 3 weeks vs untreated controls, 100% = plants have died.
Excerpt: as §1, §7, §5, §8

Test [10] deals with Poa annua. Description: Pre-emergence herbicide efficacy at 320 g/ha, POAAN. Conditions: scored visually after about 3 weeks vs untreated controls, 100% = plants have died.
Excerpt: as §1, §7, §5, §8

Test [11] has as its system Abutilon theophrasti. The test can be described thus: Pre-emergence herbicide efficacy at 320 g/ha, ABUTH. The conditions noted are these: scored visually after about 3 weeks vs untreated controls, 100% = plants have died.
Excerpt: as §1, §7, §5, §8

For test [12], the system named is Amaranthus retroflexus. The test can be described thus: Pre-emergence herbicide efficacy at 320 g/ha, AMARE. Conditions: scored visually after about 3 weeks vs untreated controls, 100% = plants have died.
Excerpt: as §1, §7, §5, §8

The subject of test [13] is Setaria viridis. Description: Pre-emergence herbicide efficacy at 320 g/ha, SETVI. The conditions noted are these: scored visually after about 3 weeks vs untreated controls, 100% = plants have died.
Excerpt: as §1, §7, §5, §8

Test [14] deals with Kochia scoparia. The test can be described thus: Pre-emergence herbicide efficacy at 320 g/ha, KCHSC. Conditions: scored visually after about 3 weeks vs untreated controls, 100% = plants have died.
Excerpt: as §1, §7, §5, §8

For test [15], the system named is Stellaria media. Description: Post-emergence herbicidal efficacy at 320 g/ha, STEME. Conditions: rated visually after about 3 weeks vs untreated controls, 100% = plants have died.
Excerpt: as §1, §4, §5, §6

Test [16] concerns Echinochloa crus-galli. Description: Post-emergence herbicidal efficacy at 320 g/ha, ECHCG. Conditions: rated visually after about 3 weeks vs untreated controls, 100% = plants have died.
Excerpt: as §1, §4, §5, §6

In test [17] the test system is Veronica persica. The test can be described thus: Pre-emergence herbicide efficacy at 320 g/ha, VERPE. Conditions: scored visually after about 3 weeks vs untreated controls, 100% = plants have died.
Excerpt: as §1, §7, §5, §8

The test system of test [18] is Echinochloa crus-galli. Description: Pre-emergence herbicide efficacy at 320 g/ha, ECHCG. Conditions: scored visually after about 3 weeks vs untreated controls, 100% = plants have died.
Excerpt: as §1, §7, §5, §8

`N#Cc1c(Cl)ccc(Nc2ncc(Cl)cn2)c1-n1cc(C(F)(F)F)cn1` [Example 1-43]: in test [1], the “Post-emergence efficacy at 80 g/ha against AMARE in %” value stood at 90%. Besides, the “Post-emergence efficacy at 320 g/ha against AMARE in %” value in test [2] is reported as 100%. Also, the “Post-emergence efficacy at 320 g/ha against KCHSC in %” value in test [3] is on record as 100%.

Consider `FC(F)(F)CCCCc1ccccc1Nc1ncc(Cl)cn1` [Example 1-2], for which, in test [4], the “Post-emergence efficacy at 320 g/ha against POAAN in %” value is reported as 90%. In addition, in [5], the “Post-emergence efficacy at 320 g/ha against VERPE in %” value worked out at 100%. Also, the “Post-emergence efficacy at 320 g/ha against AMARE in %” value in test [2] was found to be 100%. For the same compound, the “Post-emergence efficacy at 320 g/ha against KCHSC in %” value in [3] worked out at 90%.

As for `FC(F)c1cc(-c2c(Cl)cccc2Nc2ccc(Cl)cn2)on1` [Example 1-74], in [6], the “Post-emergence efficacy at 80 g/ha against VERPE in %” value turned out to be 80%. Also, in test [1], the “Post-emergence efficacy at 80 g/ha against AMARE in %” value was 80%.

In the case of `COc1cnc(Nc2cccc(F)c2-c2cc(C(F)F)no2)nc1` [Example 1-37], the “Post-emergence efficacy at 320 g/ha against ABUTH in %” value in test [7] turned out to be 100%. Moreover, in [8], the “Pre-emergence efficacy at 320 g/ha against DIGSA in %” value stood at 100%. For the same compound, the “Pre-emergence efficacy at 320 g/ha against STEME in %” value in test [9] was determined as 100%. For the same compound, the “Post-emergence efficacy at 320 g/ha against VERPE in %” value in test [5] was determined as 90%. In addition, the “Pre-emergence efficacy at 320 g/ha against POAAN in %” value in [10] was found to be 100%. The “Pre-emergence efficacy at 320 g/ha against ABUTH in %” value in [11] worked out at 90%. For the same compound, in test [12], the “Pre-emergence efficacy at 320 g/ha against AMARE in %” value came to 100%. In addition, in [13], the “Pre-emergence efficacy at 320 g/ha against SETVI in %” value turned out to be 100%. In addition, the “Post-emergence efficacy at 320 g/ha against AMARE in %” value in test [2] came out at 90%. The “Pre-emergence efficacy at 320 g/ha against KCHSC in %” value in [14] was determined as 90%. Also, the “Post-emergence efficacy at 320 g/ha against KCHSC in %” value in test [3] is reported as 90%.

`Cc1cccc(Nc2ncc(F)cn2)c1-n1cc(C(F)(F)F)cn1` [Example 1-50]: the “Post-emergence efficacy at 320 g/ha against ABUTH in %” value in [7] turned out to be 90%. Further, the “Post-emergence efficacy at 320 g/ha against STEME in %” value in test [15] is 90%. In addition, the “Pre-emergence efficacy at 320 g/ha against DIGSA in %” value in test [8] was determined as 90%. In test [9], the “Pre-emergence efficacy at 320 g/ha against STEME in %” value stood at 100%. The “Post-emergence efficacy at 320 g/ha against VERPE in %” value in test [5] was determined as 90%. Also, the “Pre-emergence efficacy at 320 g/ha against POAAN in %” value in [10] stood at 90%. Besides, in test [11], the “Pre-emergence efficacy at 320 g/ha against ABUTH in %” value turned out to be 100%. Besides, the “Pre-emergence efficacy at 320 g/ha against AMARE in %” value in [12] was found to be 100%. Moreover, the “Pre-emergence efficacy at 320 g/ha against SETVI in %” value in test [13] came out at 100%. For the same compound, the “Post-emergence efficacy at 320 g/ha against ECHCG in %” value in test [16] was found to be 90%. For the same compound, in test [17], the “Pre-emergence efficacy at 320 g/ha against VERPE in %” value was found to be 90%. In addition, the “Post-emergence efficacy at 320 g/ha against AMARE in %” value in test [2] is given as 90%. For the same compound, the “Pre-emergence efficacy at 320 g/ha against ECHCG in %” value in test [18] was 100%.

Values taken from US20250311727A1, “SUBSTITUTED 2-AMINOAZINES AND SALTS THEREOF, AND USE THEREOF AS HERBICIDAL ACTIVE SUBSTANCES” (BAYER AKTIENGESELLSCHAFT, priority 2022, published 2025).
